Test: in vitro "sniff test" model of deodorant effectiveness using human sweat incubated at 37° C.
Settings: average odor intensity rating, scores from 1=weak odor to 8=very strong odor, single ingredient
Experimental: The deodorant effectiveness of different KH2PO4/MgO mixtures at different molar ratios was studied in vitro in a “sniff test” model using human sweat incubated at 37° C.

| Structure (SMILES) | Odor intensity |
| --- | --- |
| O=P([O-])(O)O.[K+] [KH2PO4, potassium dihydrogen phosphate] | 8 |
| [O]=[Mg] [MgO, magnesium oxide] | 1 |

— patent US20240041715A1, “PROCESS FOR TREATING HUMAN PERSPIRATION AND BODY ODORS USING MAGNESIUM OXIDE AND A PHOSPHATE SALT” (L' OREAL, priority 2020, published 2024)
